According to US11628198B2, “Methods for prevention and treatment of acute renal injury” (Cornell University, priority 2008, dated 2023):

Experiments:
Assay type in all cases: in vivo, rat
ARI caused by cisplatin = test: Cisplatin-induced ARI model
Protocol: Sprague-Dawley rats (350-400 g) were given a single dose of cisplatin (7 mg/kg) intraperitoneally on Day 1. One group of rats (n=8) received one dose of SS-31 (3 mg/kg) subcutaneously just prior to cisplatin administration, and repeated once daily for 3 more days. A second group of rats (n=8) […] received an equal volume of saline on the day of cisplatin administration and for 3 more days after.
Experimental Protocol: Rats had free access to tap water and standard rat chow prior to cisplatin administration. Control blood samples were obtained from the tail vein before cisplatin administration. Saline or SS-31 (dissolved in saline) was administered to the rats subcutaneously prior to cisplatin injection. Cisplatin (dissolved in saline) was administered at a dose of 7 mg/kg intraperitoneally. All rats then received either saline or SS-31 (3 mg/kg) daily for 3 days. Rat were placed in metabolic cages for the last 24 hours for urine collection. At the end of this period, a blood sample was withdrawn from the tail vein. After this, the animals were anesthetized, kidneys were removed, and the animals euthanized.
Renal function: Renal function was assessed by blood urea nitrogen (BUN), serum creatinine, urine creatinine, and urine protein (Beckman ALX Chemical Analyzer). GFR was estimated from creatinine clearance which was determined from urinary creatinine, urine flow rate, and serum creatinine.
Renal Histology: Kidneys were fixed in 10% neutral-buffered formalin and embedded in paraffin wax. Three micron sections were stained with periodic acid-Schiff (PAS) and analyzed by light microscopy.

[1] = tested on: CCl4 induced chronic nephrotoxicity; test: CCl4 chronic kidney injury model: renal histology; details: 10 mg/kg s.c. 5 days a week for 7 wks
Excerpt: Study design and experimental protocol: In this model, SD rats with body weight of 250 g were fed with 0.35 g/L phenobarbital solution (Luminal water) for two weeks, then divided into three groups and treated as follows.
At the end of fifth week, four rats from each group were sacrificed for liver histopathological sectioning and fibrosis examination. In the end of 7th week, all remaining rats in each group were sacrificed, and kidney and liver tissues were harvest for histopathological sectioning and examination.
Renal Histology: Kidneys were fixed in 10% neutral-buffered formalin and embedded in paraffin wax. Three micron sections were stained with hematoxylin-eosin (H&E) and analyzed by light microscopy by a certified pathologist.

[2] = tested on: ARI caused by ischemia-reperfusion (I/R); test: I/R model: TUNEL assay for apoptosis; details: 30 min ischemia and 24 h reperfusion; 3 mg/kg
Protocol: (§1) Sprague Dawley rats (250˜300 g) were assigned to four groups: (1) sham surgery group without I/R; (2) I/R+saline vehicle treatment; (3) I/R+SS-20 treatment; (4) I/R+SS-31 treatment. Each experimental group consisted of 8 rats. SS-20 and SS-31 (3 mg/kg, dissolved in saline) were administered to rats 30 min before ischemia and immediately before onset of reperfusion. The control rats were given saline alone on the same schedule.
(§2) Rats were anesthetized with a mixture of ketamine (90 mg/kg, i.p.) and xylazine (4 mg/kg, i.p.). The left renal vascular pedicle was occluded temporarily using a micro-clamp for 30 or 45 min. At the end of the ischemic period, reperfusion was established by removing of the clamp. At that time, the contralateral right kidney was removed. After 24 h reperfusion, animals were sacrificed and blood samples were obtained by cardiac puncture. Renal function was determined by blood urea nitrogen (BUN) and serum creatinine (BioAssay Systems DIUR-500 and DICT-500).
TUNEL Assay for Apoptosis: Renal tissue sections were deparaffinized and rehydrated by xylenes, graded alcohol series and deionized H2O, and then incubated in 20 μg/ml proteinase K for 20 min at RT. In situ cell death detection POD kit (Roche, IN, USA) was used according to the manufacturer's instructions. […]

renal mitochondria = test: I/R model: respiration of isolated renal mitochondria; details: after 45 min ischemia, pretreatment
Protocol: Results. The effects of the aromatic-cationic peptides of the invention on a model of ARI caused by ischemia-reperfusion were investigated. Renal mitochondria were isolated in accordance with the procedures described above and oxygen consumption was measured.
State 3 respiration was initiated with the addition of ADP.

[3] = tested on: ARI caused by ischemia-reperfusion (I/R); test: I/R model: renal morphologic examination (H&E, PAS); details: 45 min ischemia and 24 h reperfusion
Protocol: as §1, §2
Renal Morphologic Examination: Kidneys were fixed in 10% neutral-buffered formalin and embedded in paraffin wax. Three micron sections were stained with hematoxylin-eosin (H&E) and periodic acid-Schiff (PAS) and analyzed by light microscopy. Lesions were scored using the following criteria: [1] mitosis and necrosis of individual cells; [2] necrosis of all cells in adjacent proximal convoluted tubules with survival of surrounding tubules; [3] necrosis confined to the distal third of the proximal convoluted tubule with a band of necrosis extending across the inner cortex; and [4] necrosis affecting all three segments of the proximal convoluted tubule.

[4] = tested on: CIN in glycerol-induced rhabdomyolysis animal model; test: CIN in glycerol-induced rhabdomyolysis model, Experiment 2
Protocol: SD rats with body weight of 300-400 grams were dehydrated for 24 h followed by i.m. injection with 25% glycerol solution (v/v) at the dose of 10 ml/kg. Twenty-four hours later, the rats were grouped and subjected to contrast induced nephropathy study protocol. Sixteen SD rats with body weight of 300-350 g were randomized into three groups with the doses, dosing schedules and study protocol presented in FIG. 23. The effects of SS-31 on ARI can be examined by comparing the renal functions in animals from group A with that from group B. Samples were analyzed by Student's t-test and differences were considered significant at p<0.05.
Renal function: Renal function was assessed by determining serum and urinary creatinine using Jiancheng Cr kit (Nanjing, P.R.C) at baseline, 24 h after dehydration and 48 h post the contrast dye administration. The creatinine clearance was calculated based on the Scr, Ucr and urinary volume. Urinary protein concentration was determined by Bradford Protein Assay kit (Sigma, St. Louis, Mo.).

[5] = 3 days after cisplatin, 3 mg/kg s.c. daily

Substance: D-Arg-2′6′Dmt-Lys-Phe-NH2 [SS-31]
- rats with no change in serum creatinine (<0.4 mg/dl) (ARI caused by cisplatin; 3 days after cisplatin): 5 out of 8
- BUN (ARI caused by cisplatin; [5]): 29.3 ± 25 mg/dL
- Kidney weight (ARI caused by cisplatin; [5]): 1.6 ± 0.2 g
- body weight (ARI caused by cisplatin; [5]): 384 ± 28 g
- serum creatinine (ARI caused by cisplatin; [5]): 0.8 ± 0.73 mg/dL
- BUN (ARI caused by cisplatin; before cisplatin treatment): 15.5 ± 1.7 mg/dL
- body weight (ARI caused by cisplatin; before cisplatin treatment): 376.9 ± 5.2 g
- serum creatinine (ARI caused by cisplatin; before cisplatin treatment): 0.4 ± 0.09 mg/dL
- renal histology (H&E) [1]: no observable histopathological change
- TUNEL-positive cells in the medulla (tubular cell apoptosis) [2]: significantly prevented TUNEL-positive cells
- renal mitochondrial oxygen consumption (state 3 respiration) (renal mitochondria): significantly improved oxygen consumption
- histopathological score [3]: significantly improved histopathological score
- tubular cell injury (H&E, PAS) [3]: protected brush border and prevented necrosis in the proximal tubules
- reduction of creatinine clearance ([4]; 48 h post dye): 13%
- 24 h urinary protein level ([4]; T0 (24 h post glycerin), no peptide yet): 50.2 ± 8.6 mg
- 24 h urinary protein level ([4]; T1 (48 h post glycerin and 24 hrs post dye)): 39.5 ± 3.5 mg
- 24 h urinary protein level ([4]; Tb (baseline), no peptide yet): 15.5 ± 1.5 mg
- PAS staining of kidney ([4]; glycerin, dye): intact brush borders, normal glomeruli and minimum protein cast in the tubular cells
